Numbers after ± are expanded uncertainties.
Conditions: Liquid

CCCOC(C)=O [propyl ethanoate]
Conditions	mass density [kg/m3]
343.15 K, 2000 kPa	833.7 ± 3.5
343.15 K, 3000 kPa	834.9 ± 3.7
343.15 K, 3300 kPa	835.3 ± 3.7
343.15 K, 5000 kPa	837.6 ± 3.9
343.15 K, 10000 kPa	843.6 ± 4.5
343.15 K, 15000 kPa	849.1 ± 5.1
343.15 K, 20000 kPa	854.3 ± 5.7
343.15 K, 25000 kPa	859.2 ± 6.3
343.15 K, 30000 kPa	865 ± 6.9
343.15 K, 35000 kPa	871.2 ± 7.5
348.15 K, 100 kPa	825.6 ± 3.3
348.15 K, 1000 kPa	826.8 ± 3.4
348.15 K, 2000 kPa	828.1 ± 3.5
348.15 K, 3000 kPa	829.5 ± 3.7
348.15 K, 3300 kPa	829.9 ± 3.7
348.15 K, 5000 kPa	832.2 ± 3.9
348.15 K, 10000 kPa	838.3 ± 4.5
348.15 K, 15000 kPa	844.1 ± 5.1
348.15 K, 20000 kPa	849.5 ± 5.7
348.15 K, 25000 kPa	854.5 ± 6.3
348.15 K, 30000 kPa	860.6 ± 6.9
348.15 K, 35000 kPa	866.8 ± 7.5
353.15 K, 100 kPa	820 ± 3.3
353.15 K, 1000 kPa	821.2 ± 3.4
353.15 K, 2000 kPa	822.6 ± 3.5
353.15 K, 3000 kPa	824 ± 3.7
353.15 K, 3300 kPa	824.4 ± 3.7
353.15 K, 5000 kPa	826.9 ± 3.9
353.15 K, 10000 kPa	833.3 ± 4.5
353.15 K, 15000 kPa	838.8 ± 5.1
353.15 K, 20000 kPa	844.8 ± 5.7
353.15 K, 25000 kPa	850 ± 6.3
353.15 K, 30000 kPa	856.4 ± 6.9
353.15 K, 35000 kPa	862.7 ± 7.5
358.15 K, 100 kPa	811.6 ± 3.3
358.15 K, 1000 kPa	812.9 ± 3.4
358.15 K, 2000 kPa	814.4 ± 3.5
358.15 K, 3000 kPa	815.8 ± 3.7
358.15 K, 3300 kPa	816.3 ± 3.7
358.15 K, 5000 kPa	818.6 ± 3.9
358.15 K, 10000 kPa	825.3 ± 4.5
358.15 K, 15000 kPa	831.5 ± 5.1
358.15 K, 20000 kPa	837.2 ± 5.7
358.15 K, 25000 kPa	842.8 ± 6.3
363.15 K, 100 kPa	804.8 ± 3.3
363.15 K, 1000 kPa	806.9 ± 3.4
363.15 K, 2000 kPa	808.4 ± 3.5
363.15 K, 3000 kPa	810 ± 3.7
363.15 K, 3300 kPa	810.4 ± 3.7
363.15 K, 5000 kPa	812.9 ± 3.9
363.15 K, 10000 kPa	819.9 ± 4.5
363.15 K, 15000 kPa	826.2 ± 5.1
363.15 K, 20000 kPa	832.1 ± 5.7
363.15 K, 25000 kPa	837.7 ± 6.3
363.15 K, 30000 kPa	844.4 ± 6.9
368.15 K, 1000 kPa	801 ± 3.4
368.15 K, 2000 kPa	802.7 ± 3.6
368.15 K, 3000 kPa	804.3 ± 3.7
368.15 K, 3300 kPa	804.8 ± 3.7
368.15 K, 5000 kPa	807.4 ± 3.9
368.15 K, 10000 kPa	814.6 ± 4.5
368.15 K, 15000 kPa	821.2 ± 5.1
368.15 K, 20000 kPa	827.3 ± 5.7
368.15 K, 25000 kPa	833.1 ± 6.3
373.15 K, 1000 kPa	795.5 ± 3.4
373.15 K, 2000 kPa	797.2 ± 3.6
373.15 K, 3000 kPa	798.9 ± 3.7
373.15 K, 3300 kPa	799.5 ± 3.7
373.15 K, 5000 kPa	802.3 ± 3.9
373.15 K, 10000 kPa	809.8 ± 4.5
373.15 K, 15000 kPa	816.6 ± 5.1
373.15 K, 20000 kPa	822.9 ± 5.7
373.15 K, 25000 kPa	828.9 ± 6.3
378.15 K, 1000 kPa	789.4 ± 3.4
378.15 K, 2000 kPa	791.3 ± 3.6
378.15 K, 3000 kPa	793 ± 3.7
378.15 K, 3300 kPa	793.6 ± 3.7
378.15 K, 5000 kPa	796.3 ± 3.9
378.15 K, 10000 kPa	803.3 ± 4.5
378.15 K, 15000 kPa	811.3 ± 5.1
378.15 K, 20000 kPa	817.7 ± 5.7
378.15 K, 25000 kPa	824 ± 6.3
378.15 K, 30000 kPa	831.2 ± 6.9
383.15 K, 1000 kPa	783.6 ± 3.5
383.15 K, 2000 kPa	785.5 ± 3.6
383.15 K, 3000 kPa	787.3 ± 3.7
383.15 K, 3300 kPa	788.2 ± 3.7
383.15 K, 5000 kPa	791.2 ± 3.9
383.15 K, 10000 kPa	799.2 ± 4.5
383.15 K, 15000 kPa	806.6 ± 5.1
383.15 K, 20000 kPa	813.2 ± 5.8
383.15 K, 25000 kPa	819.7 ± 6.4
388.15 K, 1000 kPa	777.9 ± 3.5
388.15 K, 2000 kPa	779.8 ± 3.6
388.15 K, 3000 kPa	781.6 ± 3.7
388.15 K, 3300 kPa	782.1 ± 3.8
388.15 K, 5000 kPa	785.4 ± 4
388.15 K, 10000 kPa	793.8 ± 4.6
388.15 K, 15000 kPa	801.5 ± 5.2
388.15 K, 20000 kPa	808.5 ± 5.8
388.15 K, 25000 kPa	815.2 ± 6.4
388.15 K, 30000 kPa	823.2 ± 7
393.15 K, 1000 kPa	771.8 ± 3.5
393.15 K, 2000 kPa	773.9 ± 3.6
393.15 K, 3000 kPa	775.9 ± 3.7
393.15 K, 3300 kPa	776.4 ± 3.8
393.15 K, 5000 kPa	779.7 ± 4
393.15 K, 10000 kPa	788.6 ± 4.6
393.15 K, 15000 kPa	796.5 ± 5.2
393.15 K, 20000 kPa	803.8 ± 5.8
393.15 K, 25000 kPa	810.7 ± 6.4

— the NIST ThermoML archive (doi:10.1021/je060339m)
